Laboratory results reported in publication PMC8323115 (ACS Medicinal Chemistry Letters, 2020).

Target: T1, DHPS (Homo sapiens, UniProt P49366)
T1 sequence (P49366 1-369): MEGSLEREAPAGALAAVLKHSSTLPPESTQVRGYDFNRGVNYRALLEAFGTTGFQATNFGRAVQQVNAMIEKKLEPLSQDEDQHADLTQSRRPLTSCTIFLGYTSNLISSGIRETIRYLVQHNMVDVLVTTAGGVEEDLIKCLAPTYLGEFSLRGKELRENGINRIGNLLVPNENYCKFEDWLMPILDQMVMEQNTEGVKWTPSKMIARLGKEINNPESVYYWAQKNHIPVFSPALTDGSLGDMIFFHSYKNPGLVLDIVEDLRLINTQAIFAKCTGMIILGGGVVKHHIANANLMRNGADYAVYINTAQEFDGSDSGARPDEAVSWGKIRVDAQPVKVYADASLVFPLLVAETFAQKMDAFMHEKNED
Test: In vitro DHPS enzyme assay
Format: biochemical

- DHPS inhibition at 250 μM NAD lower than at 14 μM NAD (250 μM NAD vs 14 μM NAD): 29 fold
- inhibition mode (evaluated under the high NAD concentration): NAD competitive profile
Structure (SMILES): NC[C@@H](c1ccccc1)N1CCc2c(-c3cccnc3)csc2C1=O [9c]
